Assay results published in article PMC11079024, “Identification of a family of species-selective complex I inhibitors as potential anthelmintics” (Nature Communications, 2024).
pIC50: −log10 of the molar value. Values joined by “and” are separate entries in the source; they are usually repeats but may differ in a detail not shown here. Equal values may be shown once. Read-outs that look alike come from different tables or passages of the source.

Key:
adult H. polygyrus [1] = assay: microbe, parasite or virus in culture; assay type: cell-based, Heligmosomoides polygyrus; details: anaerobic, 24 hours after treatment; for Percent Worms Affected: adult H. polygyrus, affected = score equal to or lower than 1.5; for # of Worms Affected: worms with score equal to or lower than 1.5; for Worm viability score, individual worms (Worm1-Worm20): scale from 0 (dead) to 3 (motile)
Experimental: To investigate the impact of the eleven benzimidazole derivatives under anaerobic conditions, an anaerobic chamber with an integrated incubator (Coy Laboratory Products, USA) was used. The same procedure was followed as described for the aerobic drug screening in adult H. polygyrus, but the incubation took place within the anaerobic chamber (37 °C, 85% N2, 10% CO2, 5% H2). Benzimidazole derivatives were tested at a concentration of 10 µM. For scoring, the plates had to be removed from the anaerobic chamber. The whole experiment was performed two times i.e., two independent biological replicates.
The activities of eleven benzimidazole derivatives were tested against adult H. polygyrus viability in vitro under aerobic (+, white boxplots) and anaerobic (–, coloured boxplots) conditions (see Methods). After 24-hour chemical treatment, worm viability was manually scored by an examiner using a scale from 0 (dead) to 3 (motile); DMSO was used as a negative control in both aerobic and anaerobic conditions; levamisole was used as a positive control in anaerobic conditions. The percentage of affected worms (i.e., worms with a score equal to or lower than 1.5) in each biological replicate is shown; data are from two biological replicates. Within each boxplot, black horizontal lines denote group medians, boxes span from the 25th to the 75th percentile of each group’s distribution, and whiskers extend to the maximum and minimum values. […]

adult H. polygyrus [2] = assay type: cell-based, Heligmosomoides polygyrus; details: for Worm viability score, individual worms (Worm1-Worm20): scale from 0 (dead) to 3 (motile)
Experimental: After either 24- or 72 h chemical treatment, worm viability was manually scored by an examiner using a scale from 0 (dead) to 3 (motile); DMSO was used as a negative control in both 24- and 72 h treatments. The percentage of affected worms (i.e., worms with a score equal to or lower than 1.5) in each biological replicate is shown; data are from two biological replicates. Within each boxplot, black horizontal lines denote group medians, boxes span from the 25th to the 75th percentile of each group’s distribution, and whiskers extend to the maximum and minimum values.
The eleven benzimidazole derivatives were tested at a concentration of 10 µM under aerobic conditions against L3 and adult H. polygyrus.
For the larval assay, mice feces were collected 2 weeks post-infection and eggs were isolated. The eggs were left on agar at room temperature in the dark for eight to 10 days to allow them to develop into L3. Next, 30–40 L3 were incubated (37 °C, 5% CO2) in the culture medium (RPMI 1640 medium + 1% pen./strep. + 5% amphotericin B) containing the derivatives in 96-well plate (Corning, USA) reaching a final volume of 250 µL for 24 h. For the adult drug screening assay, female NMRI mice were euthanized with CO2 and adult H. polygyrus were dissected out of the intestines. Subsequently, three worms were exposed to the culture medium (RPMI 1640 medium + 1% pen./strep. + 5% amphotericin B) with the derivatives (2 mL) in a 24-well plate (Corning, USA) for either 24 or 72 h. DMSO ( < 1%) served as a negative control in both assays. All conditions were tested in duplicates. Finally, 80 µL of hot water ( ~ 80 °C) for L3 and 500 µL of hot water (~80 °C) for adults were added to the wells to check for their viability under a microscope (Carl Zeiss, Germany). Larvae were categorized as being either alive or dead, depending on whether they moved or not. […] The whole experiment was performed two times i.e., two independent biological replicates for both life stages (L3s and adults) and exposure times (24 and 72 h).

C. elegans = C. elegans chemical screens of RIKEN NPD libraries at 50 μM (hit identification in KCN survival and development/viability assays); assay type: cell-based, Caenorhabditis elegans
in vitro = details: human
[3] = target: C. elegans (N2) complex I (NADH:ubiquinone oxidoreductase) (Caenorhabditis elegans, UniProt P24887+Q93873+Q94360); assay: biochemical; assay type: biochemical; details: for Log IC50 C. elegans complex I: log10 of IC50 in µM, C. elegans mitochondria
Procedure, shortened: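 Mitochondria, 0.2 mg/mL protein, freeze-thawed three times, assayed in 25 mM KPi pH 7.5 with BSA, 80 μM NADH, 60 μM decylubiquinone, 160 μM DCIP, antimycin A and KCN. Rate from initial linear slope of A600 over 15 min. % of solvent control.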

L1 wild-type C. elegans [4] = assay: microbe, parasite or virus in culture; details: Caenorhabditis elegans, read-out: C. elegans KCN Survival Assay LC50, estimated from fitted dose-response curves; mean of at least two biological replicates
[5] = target: B. taurus (heart) complex I (Bos taurus, UniProt P03887+P17694+P42026); assay: biochemical; assay type: biochemical; details: for pIC50: B. taurus heart mitochondria, read-out: B. taurus Complex I IC50; for Log IC50 B. taurus complex I: log10 of IC50 in µM, B. taurus mitochondria
Experimental: Six 8–10-week-old C57Bl/6 female mice (Charles River) were freshly dissected, and their livers and hearts collected into separate 1.5 mL microcentrifuge tubes. Organs were flash-frozen in liquid nitrogen and stored at −80 °C prior to use. The heart of a freshly slaughtered adult cow was obtained from a local abattoir (Peel Sausage Inc.), chopped into ~1-inch cubes and collected into 50 mL falcon tubes. Falcon tubes were flash-frozen in a container of dry ice and stored at −80 °C prior to use. Isolation of mitochondria from all mammalian tissue was carried out following the protocol described above. However, due to size, the initial homogenization of tissue was performed by 15 strokes in a dounce homogenizer (mouse heart) or with several 5 s pulses in small Nutribullet blender (cow heart). All mouse protocols for mouse care and dissection were reviewed and approved by the University of Toronto Animal Care Committee, in accordance with the Canadian Council on Animal Care.
The enzymatic activities of individual ETC complexes (I-IV) were assessed spectrophotometrically in isolated mitochondria using a Varioskan LUX Multimode plate reader (ThermoFisher Scientific). Mitochondrial pellets previously isolated were thawed on ice and resuspended in ice-cold isolation buffer (250 mM sucrose, 10 mM Tris (pH 7.5), 1 mM EDTA). The BCA assay (Walker, 1994) was used to quantify the protein concentration of mitochondria suspensions; solutions were diluted to a concentration of 0.2 mg/mL for use in all assays. For the complex I assay, mitochondria pellets were freeze-thawed on ice three times to increase enzyme accessibility. […] 20 μL mitochondria suspension was then added/mixed with a pipette to initiate the reaction. Immediately following the addition of mitochondria, absorbance was measured (complex I and II: 600 nm; complex III and IV: 550 nm) in 30 s intervals over 15 min. Enzymatic activity was determined in each reaction by plotting absorbance versus time and calculating the slope of the curve during the initial linear phase of the reaction. […] Percent activity of each complex was calculated by dividing the enzyme-specific activity of each well by the enzyme-specific activity of the corresponding solvent controls.
Chemical solutions were prepared in complex I assay buffer composed of 25 mM KPi buffer (pH 7.5), 3 mg/mL bovine serum albumin (BSA), 80 μM NADH, 60 μM decylubiquinone, 160 μM DCIP, 2 μM antimycin A and 2 mM KCN.
For preliminary screens of hit compounds, compounds were screened at 100 μM; data are the average of at least three biological replicates. The complex I and II activity assays were used for additional dose-response experiments. […] For dose responses of benzimidazole analogs, data represent the average of two biological replicates. For all other dose-responses, data represent the average of at least three biological replicates.

L1 wild-type C. elegans [6] = details: 50 μM compound; […]; hit = relative motility below 0.25 3 hours after removal of KCN
[7] = system: ben-1 mutant (ECA882) C. elegans; assay: microbe, parasite or virus in culture; details: Caenorhabditis elegans
Experimental: Liquid development and viability assays were adapted from a previously established chemical screening protocol (Burns et al.)[24]. In brief, a saturated culture of E. coli HB101 was concentrated 2-fold in liquid NGM and 40 μL of this suspension was distributed to each well of a 96-well flat-bottom culture plate. 0.5 μL chemical solution (or DMSO alone) was added to each well (1% DMSO v/v) using either a multi-channel pipette or a pinning tool (V&P Scientific). L1 worms synchronized from an embryo preparation performed the day prior were diluted to a concentration of ~2 worms/μL in M9 buffer; 10 μL worm suspension was then added to each well. Culture plates were sealed with parafilm and placed in a plastic container lined with wet paper towels to prevent evaporation. Containers were then incubated for 6 days at 20 °C with shaking at 165 rpm. Following incubation, 300 μL M9 was added to each well to decrease the turbidity of the HB101-NGM suspension. Single images of each microplate well were then taken on a Nikon Ti Eclipse inverted microscope (Nikon NIS Elements AR). Images were processed using Python scripts to isolate worm-associated pixels from background. Scores of worm development and viability were determined as the sum of worm-associated pixels in each well. Development/viability scores for each well were divided by the development /viability scores for the corresponding DMSO controls, resulting in a relative viability value for each chemical. At least three biological replicates were performed for each dose-response experiment; relative viability values were averaged across replicates. […]
anthelmintics. a. Chemical structures of four commercial benzimidazole anthelmintics (e.g., albendazole, […]
Dose response of four commercial […]
elegans strains: N2, wild type; ECA882, deletion (ben-1); ECA917, F200Y (ben-1); ECA1075, F167Y (ben-1); ECA1080, E198A (ben-1); CB3474, G104D (ben-1). The colour-coded scale denotes the phenotypic outcome of drug treatment (e.g., motility or viability) relative to DMSO controls; white/pale- […]
death and arrested development. c. […]
benzimidazole anthelmintics (blue) were conducted in C. elegans development and viability assays for wild type (N2) and ben-1 mutant (ECA882) C. elegans (see Supplementary Date File 1).
All data used for generation of dose-response curves is the mean of at least three […]
Supplementary Figure 7 (continued). Davie et al.

[8] = adult H. polygyrus, in vitro, aerobic, 24 hours, per biological replicate
[9] = adult H. polygyrus, in vitro, aerobic, 72 hours, per biological replicate
[10] = screened at 50 μM in triplicate, […], KCN = KCN survival assay, Dev. & Viability = development/viability assay
[11] = in vitro complex I dose response on C. elegans mitochondria, average of at least two biological replicates, fit in R (DRC), read-out: IC50 C. elegans complex I
[12] = wild-type (N2) mitochondria, read-out: C. elegans Complex I IC50
[13] = wild-type C. elegans mitochondria, read-out: C. elegans Complex I IC50
[14] = read-out: C. elegans (ben-1) Development & Viability Assay LC50
[15] = read-out: C. elegans ben-1 log10 LC50 (converted)

Chain of C. elegans (N2) complex I (NADH:ubiquinone oxidoreductase) (Q94360 17-199): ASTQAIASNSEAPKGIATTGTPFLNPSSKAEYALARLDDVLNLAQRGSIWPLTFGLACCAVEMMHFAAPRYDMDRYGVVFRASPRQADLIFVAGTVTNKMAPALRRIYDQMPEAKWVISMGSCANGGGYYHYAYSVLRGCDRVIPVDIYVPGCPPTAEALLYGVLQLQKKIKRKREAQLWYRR
Chain of C. elegans (N2) complex I (NADH:ubiquinone oxidoreductase) (P24887 whole entry): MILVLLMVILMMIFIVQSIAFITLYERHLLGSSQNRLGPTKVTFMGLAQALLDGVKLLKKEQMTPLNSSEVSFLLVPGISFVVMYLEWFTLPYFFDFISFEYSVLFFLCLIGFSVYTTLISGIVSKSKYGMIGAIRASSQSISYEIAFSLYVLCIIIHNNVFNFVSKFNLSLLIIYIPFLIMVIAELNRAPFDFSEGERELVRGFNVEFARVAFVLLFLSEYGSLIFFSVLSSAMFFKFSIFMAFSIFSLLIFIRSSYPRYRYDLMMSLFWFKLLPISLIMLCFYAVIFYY
Chain of C. elegans (N2) complex I (NADH:ubiquinone oxidoreductase) (Q93873 31-482): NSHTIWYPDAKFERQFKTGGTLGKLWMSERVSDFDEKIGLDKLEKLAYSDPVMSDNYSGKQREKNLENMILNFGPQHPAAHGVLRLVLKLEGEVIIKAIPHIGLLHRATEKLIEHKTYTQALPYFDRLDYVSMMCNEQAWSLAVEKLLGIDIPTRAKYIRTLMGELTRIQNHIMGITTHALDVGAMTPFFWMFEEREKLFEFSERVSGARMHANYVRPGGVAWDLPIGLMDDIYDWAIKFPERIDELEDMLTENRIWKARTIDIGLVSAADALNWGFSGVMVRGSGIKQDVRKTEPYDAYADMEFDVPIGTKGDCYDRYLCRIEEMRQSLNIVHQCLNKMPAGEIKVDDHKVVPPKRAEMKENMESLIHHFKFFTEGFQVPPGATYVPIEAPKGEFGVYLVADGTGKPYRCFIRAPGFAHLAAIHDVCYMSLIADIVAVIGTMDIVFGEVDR
Chain of B. taurus (heart) complex I (P03887 whole entry): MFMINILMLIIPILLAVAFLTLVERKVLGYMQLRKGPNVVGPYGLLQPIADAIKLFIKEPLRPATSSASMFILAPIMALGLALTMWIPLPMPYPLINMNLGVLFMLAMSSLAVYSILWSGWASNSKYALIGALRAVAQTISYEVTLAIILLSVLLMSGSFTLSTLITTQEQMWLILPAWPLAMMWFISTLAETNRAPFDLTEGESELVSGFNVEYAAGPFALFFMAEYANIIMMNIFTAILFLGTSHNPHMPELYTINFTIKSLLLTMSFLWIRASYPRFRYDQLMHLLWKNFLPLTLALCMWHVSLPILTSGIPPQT
Chain of B. taurus (heart) complex I (P17694 34-463): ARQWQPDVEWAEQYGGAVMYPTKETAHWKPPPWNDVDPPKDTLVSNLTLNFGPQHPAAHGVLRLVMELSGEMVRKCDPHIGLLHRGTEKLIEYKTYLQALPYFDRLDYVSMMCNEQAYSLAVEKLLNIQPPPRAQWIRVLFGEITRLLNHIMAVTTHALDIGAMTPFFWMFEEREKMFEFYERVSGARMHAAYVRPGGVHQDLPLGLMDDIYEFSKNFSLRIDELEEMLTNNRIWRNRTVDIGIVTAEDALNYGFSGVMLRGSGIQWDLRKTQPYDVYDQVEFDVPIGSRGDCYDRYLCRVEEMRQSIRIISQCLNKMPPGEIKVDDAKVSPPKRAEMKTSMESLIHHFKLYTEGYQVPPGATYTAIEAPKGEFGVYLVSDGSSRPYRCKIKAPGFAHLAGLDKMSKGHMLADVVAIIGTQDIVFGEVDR
Chain of B. taurus (heart) complex I (P42026 38-216): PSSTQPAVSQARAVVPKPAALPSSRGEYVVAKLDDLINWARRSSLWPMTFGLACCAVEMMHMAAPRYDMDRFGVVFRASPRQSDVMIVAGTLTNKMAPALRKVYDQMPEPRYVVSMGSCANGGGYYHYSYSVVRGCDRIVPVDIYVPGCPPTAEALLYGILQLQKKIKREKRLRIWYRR

Compound | Hit Type (C. elegans; [10]) | CC50 at 2 days (in vitro) [µM] | pIC50 [3, 11] | Log IC50 C. elegans complex I [3] [µM] | pIC50 [3, 12] | pIC50 [3, 13] | LC50 (L1 wild-type C. elegans [4]) [µM] | pIC50 [5] | Log IC50 B. taurus complex I [5] [µM] | Screen "Hit" (L1 wild-type C. elegans [6]) | LC50 [7, 14] [µM] | LC50 [7, 15] [µM] | other results
CC(C)Cc1ccc(C(C)c2nc3ccccc3n2C)cc1 (racemic) [NPD87890] |  |  |  |  |  |  |  |  |  |  |  |  | Percent Worms Affected (adult H. polygyrus [1]; replicate 1): 100%; Percent Worms Affected (adult H. polygyrus [1]; replicate 2): 100%; # of Worms Affected (adult H. polygyrus [1]; replicate 1): 6; Worm viability score, individual worms (Worm1-Worm20) (adult H. polygyrus [1]; replicate 1): 0.5 (3×) and 0 (2×) and 1; # of Worms Affected (adult H. polygyrus [1]; replicate 2): 6; Worm viability score, individual worms (Worm1-Worm20) (adult H. polygyrus [1]; replicate 2): 1.5 and 1 (5×); Worm viability score of individual worm, scale from 0 (dead) to 3 (motile) (adult H. polygyrus [2]): 1 and 0.5; Percent Worms Affected (adult H. polygyrus [2]; adult H. polygyrus, aerobic, replicate 1, 24 hours after treatment, affected = score equal to or lower than 1.5): 100%; # of Worms Affected (adult H. polygyrus [2]; [8]): 3 and 6; Percent Worms Affected (worms with a score equal to or lower than 1.5) (adult H. polygyrus [2]; [8]): 50% and 100%; Worm viability score of individual worm, scale from 0 (dead) to 3 (motile) (adult H. polygyrus [2]; adult H. polygyrus, in vitro, aerobic, 24 hours, single worms): 2 (2×) and 2.5 and 1.5 and 1 and 1.25 (5×); # of Worms Affected (adult H. polygyrus [2]; [9]): 5 and 6; Percent Worms Affected (worms with a score equal to or lower than 1.5) (adult H. polygyrus [2]; [9]): 83% and 100%; Worm viability score of individual worm, scale from 0 (dead) to 3 (motile) (adult H. polygyrus [2]; adult H. polygyrus, in vitro, aerobic, 72 hours, single worms): 2 and 1.5 and 1 (2×) and 0.5 and 0.75 (3×); # of Worms Affected (adult H. polygyrus [2]; aerobic, replicate 1, 24 hours after treatment, worms with score equal to or lower than 1.5): 6; Worm viability score, individual worms (Worm1-Worm20) (adult H. polygyrus [2]; aerobic, replicate 1, 24 hours after treatment): 1.25 (5×) and 1; # of Worms Affected (adult H. polygyrus [2]; aerobic, replicate 2, 24 hours after treatment, worms with score equal to or lower than 1.5): 3; Worm viability score, individual worms (Worm1-Worm20) (adult H. polygyrus [2]; aerobic, replicate 2, 24 hours after treatment): 2 (2×) and 2.5 and 1 (2×) and 1.5
COc1cccc2c1cc([N+](=O)[O-])c1c(C(=O)O)cc3c(c12)OCO3 [Aristolochic acid, reference compound] |  |  |  |  |  |  |  |  |  |  |  |  | Hit Type (C. elegans): Dev. & Viability
CCCC[C@@]1(OC(=O)CCC(=O)O)CC[C@]2(CC[C@H](C)[C@@H](C/C=C(C)/C=C/[C@H](O)[C@@H](C)/C=C/C(=O)O)O2)O[C@H]1/C=C/C(C)=C/C(=O)O [Reveromycin A, reference compound] | Dev. & Viability |  |  |  |  |  |  |  |  |  |  |  | 
COC(=O)Nc1nc2ccc(C(=O)c3cccs3)cc2[nH]1 [Nocodazole, reference compound] | Dev. & Viability |  |  |  |  |  |  |  |  |  |  |  | 
Cc1nc2ccccc2n1Cc1ccc(C(C)(C)C)cc1 [Compound 5521938] |  | 35.3 | 5.59 | 0.41 | 5.59 | 5.59 | 11 | 5.93 | 0.07 | Y (hits were identified as compounds that reduced relative motility below 0.25 (75% reduction)) | 272 | 272 | 
Cn1c(Cc2ccc(Cl)cc2)nc2ccccc21 [Compound 9005666] |  | > 100 | 5.08 | 0.92 | 5.08 | 5.08 | 28.6 | 4.48 | 1.52 | Y (hits were identified as compounds that reduced relative motility below 0.25 (75% reduction)) | 193 | 193 | 
